Experiments:
[1] = molecular target: T1, human recombinant histamine H1 receptor (Homo sapiens, UniProt P35367); assay: Histamine H1 radioligand binding ([3H]Pyrilamine); details: compound at 1 μM; read-out: Histamine Binding (1 μM) H1, percent inhibition of specific binding
T1 construct: expressed in transfected cells; host or cells: CHO cells
Protocol: To evaluate in radioligand binding assays the activity of compounds of the invention, human recombinant histamine H1 receptor expressed in Chinese hamster ovary (CHO) cells (De Backer, M. D. et al., Biochem. Biophys. Res. Comm. 197(3):1601, 1993) in a modified Tris-HCl buffer (50 mM Tris-HCl, pH 7.4, 2 mM MgCl2, 100 mM NaCl, 250 mM Sucrose) was used. Compounds of the invention were incubated with 1.2 nM [^3H]Pyrilamine for 180 min. at 25° C. Non-specific binding was estimated in the presence of 1 μM pyrilamine. Receptor proteins were filtered and washed, the filters were then counted to determine [^3H]Pyrilamine specifically bound. Compounds were screened at 1 μM or lower, using 1% DMSO as vehicle. Biochemical assay results are presented as the percent inhibition of specific binding in Table 6.

[2] = molecular target: T2, human recombinant histamine H2 receptor (Homo sapiens, UniProt P25021); assay: Histamine H2 radioligand binding ([125I]Aminopotentidine); details: compound at 1 μM; read-out: Histamine Binding (1 μM) H2, percent inhibition of specific binding
T2 construct: expressed in transfected cells; host or cells: CHO-K1 cells
Protocol: To evaluate in radioligand binding assays the activity of compounds of the invention, human recombinant histamine H2 receptor expressed in Chinese hamster ovary (CHO) K1 cells (Ruat, M., Proc. Natl. Acad. Sci. USA. 87(5):1658, 1990) in a 50 mM Phosphate buffer, pH 7.4 was used. Compounds of the invention were incubated with 0.1 nM [^125I]Aminopotentidine for 120 min. at 25° C. Non-specific binding was estimated in the presence of 3 μM Tiotidine. Receptor proteins were filtered and washed, the filters were then counted to determine [^125I]Aminopotentidine specifically bound. Compounds were screened at 1 μM or lower, using 1% DMSO as vehicle. Biochemical assay results are presented as the percent inhibition of specific binding in Table 6.

[3] = molecular target: T3, human recombinant dopamine D2L receptor (Homo sapiens, UniProt P14416); assay: Dopamine D2L radioligand binding ([3H]Spiperone); details: compound at 1 μM; read-out: Dopamine (1 μM) D2L, percent inhibition of specific binding
T3 construct: expressed in transfected cells; host or cells: CHO cells
Protocol: To evaluate in radioligand binding assays the activity of compounds of the invention, human recombinant dopamine D2L receptor expressed in Chinese hamster ovary (CHO) cells (Grandy, D. K. et al. Proc. Natl. Acad. Sci. USA. 86:9762, 1989; Hayes, G. et al., Mol. Endocrinol. 6:920, 1992) in a modified Tris-HCl buffer (50 mM Tris-HCl, pH 7.4, 1.4 mM Ascorbic Acid, 0.001% BSA, 150 mM NaCl) was used. Compounds of the invention were incubated with 0.16 nM [^3H]Spiperone for 120 min. at 25° C. Non-specific binding was estimated in the presence of 10 μM Haloperidol. Receptor proteins were filtered and washed, the filters were then counted to determine [^3H]Spiperone specifically bound. Compounds were screened at 1 μM or lower, using 1% DMSO as vehicle. Biochemical assay results are presented as the percent inhibition of specific binding in Table 5.

[4] = molecular target: T4, human recombinant serotonin (5-Hydroxytryptamine) 5-HT2A receptor (Homo sapiens, UniProt P28223); assay: Serotonin 5-HT2A radioligand binding ([3H]Ketanserin); details: compound at 1 μM; read-out: Serotonin (1 μM) 5-HT2A, percent inhibition of specific binding
T4 construct: expressed in transfected cells; host or cells: CHO-K1 cells
Protocol: To evaluate in radioligand binding assays the activity of compounds of the invention, human recombinant serotonin (5-Hydroxytryptamine) 5-HT2A receptor expressed in Chinese hamster ovary (CHO-K1) cells (Bonhaus, D. W. et al. Br. J. Pharmacol. 115:622, 1995; Saucier, C. and Albert, P. R., J. Neurochem. 68:1998, 1997) in a 50 mM Tris-HCl buffer, pH 7.4, was used. Compounds of the invention were incubated with 0.5 nM [^3H]Ketanserin for 60 min. at 25° C. Non-specific binding was estimated in the presence of 1 μM Mianserin. Receptor proteins were filtered and washed, the filters were then counted to determine [^3H]Ketanserin specifically bound. Compounds were screened at 1 μM or lower, using 1% DMSO as vehicle. Biochemical assay results are presented as the percent inhibition of specific binding in Table 6.

[5] = molecular target: T5, human recombinant serotonin (5-Hydroxytryptamine) 5-HT2C receptor (Homo sapiens, UniProt P28335); assay: Serotonin 5-HT2C radioligand binding ([3H]Mesulergine); details: compound at 1 μM; read-out: Serotonin (1 μM) 5-HT2C, percent inhibition of specific binding
T5 construct: expressed in transfected cells; host or cells: CHO-K1 cells
T5 sequence (P28335 33-458): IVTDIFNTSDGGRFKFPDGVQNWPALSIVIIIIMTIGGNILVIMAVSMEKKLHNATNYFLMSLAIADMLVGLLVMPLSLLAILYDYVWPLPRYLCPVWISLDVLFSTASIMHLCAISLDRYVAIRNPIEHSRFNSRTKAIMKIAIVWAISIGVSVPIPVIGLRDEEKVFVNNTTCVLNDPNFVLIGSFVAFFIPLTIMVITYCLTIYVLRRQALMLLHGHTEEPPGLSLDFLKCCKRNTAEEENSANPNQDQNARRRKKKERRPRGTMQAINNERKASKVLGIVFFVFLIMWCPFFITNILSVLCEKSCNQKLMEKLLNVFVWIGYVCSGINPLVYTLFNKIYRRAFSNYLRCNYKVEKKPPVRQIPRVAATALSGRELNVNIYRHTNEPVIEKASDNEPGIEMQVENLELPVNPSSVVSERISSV
Protocol: To evaluate in radioligand binding assays the activity of compounds of the invention, human recombinant serotonin (5-Hydroxytryptamine) 5-HT2C receptor expressed in Chinese hamster ovary (CHO-K1) cells (Wolf, W. A. and Schutz, J. S., J. Neurochem. 69:1449, 1997) in a modified Tris-HCl buffer (50 mM Tris-HCl, pH 7.4, 0.1% Ascorbic Acid, 10 μM Pargyline) was used. Compounds of the invention were incubated with 1 nM [^3H]Mesulergine for 60 min. at 25° C. Non-specific binding was estimated in the presence of 1 μM Mianserin. Receptor proteins were filtered and washed, the filters were then counted to determine [^3H]Mesulergine specifically bound. Compounds were screened at 1 μM or lower, using 1% DMSO as vehicle. Biochemical assay results are presented as the percent inhibition of specific binding in Table 6.

[6] = molecular target: T6, human recombinant serotonin (5-Hydroxytryptamine) 5-HT6 receptor (Homo sapiens, UniProt P50406); assay: Serotonin 5-HT6 radioligand binding ([3H]LSD); details: compound at 1 μM; read-out: Serotonin (1 μM) 5-HT6, percent inhibition of specific binding
T6 construct: expressed in transfected cells; host or cells: human HeLa cells
Protocol: To evaluate in radioligand binding assays the activity of compounds of the invention, human recombinant serotonin (5-Hydroxytryptamine) 5-HT6 receptor expressed in human HeLa cells (Monsma, F. J. Jr. et al., Mol. Pharmacol. 43:320, 1993) in a modified Tris-HCl buffer (50 mM Tris-HCl, pH 7.4, 150 mM NaCl, 2 mM Ascorbic Acid, 0.001% BSA) was used. Compounds of the invention were incubated with 1.5 nM [3H]Lysergic acid diethylamide (LSD) for 120 min. at 37° C. Non-specific binding was estimated in the presence of 5 μM Serotonin (5-HT). Receptor proteins were filtered and washed, the filters were then counted to determine [3H]LSD specifically bound. Compounds were screened at 1 μM or lower, using 1% DMSO as vehicle. Biochemical assay results are presented as the percent inhibition of specific binding in Table 6.

T3 sequence (P14416 whole entry): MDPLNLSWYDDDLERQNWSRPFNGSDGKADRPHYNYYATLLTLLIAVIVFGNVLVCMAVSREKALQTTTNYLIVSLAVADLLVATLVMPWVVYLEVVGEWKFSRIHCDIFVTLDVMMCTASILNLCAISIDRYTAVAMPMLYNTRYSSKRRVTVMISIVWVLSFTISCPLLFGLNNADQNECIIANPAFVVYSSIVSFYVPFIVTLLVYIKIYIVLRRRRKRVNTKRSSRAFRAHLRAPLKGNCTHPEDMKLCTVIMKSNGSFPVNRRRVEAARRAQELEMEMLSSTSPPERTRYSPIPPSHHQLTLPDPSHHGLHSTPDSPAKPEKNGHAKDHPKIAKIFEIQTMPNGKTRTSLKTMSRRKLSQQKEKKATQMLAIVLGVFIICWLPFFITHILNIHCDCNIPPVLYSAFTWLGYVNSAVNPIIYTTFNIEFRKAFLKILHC
T1 sequence (P35367 whole entry): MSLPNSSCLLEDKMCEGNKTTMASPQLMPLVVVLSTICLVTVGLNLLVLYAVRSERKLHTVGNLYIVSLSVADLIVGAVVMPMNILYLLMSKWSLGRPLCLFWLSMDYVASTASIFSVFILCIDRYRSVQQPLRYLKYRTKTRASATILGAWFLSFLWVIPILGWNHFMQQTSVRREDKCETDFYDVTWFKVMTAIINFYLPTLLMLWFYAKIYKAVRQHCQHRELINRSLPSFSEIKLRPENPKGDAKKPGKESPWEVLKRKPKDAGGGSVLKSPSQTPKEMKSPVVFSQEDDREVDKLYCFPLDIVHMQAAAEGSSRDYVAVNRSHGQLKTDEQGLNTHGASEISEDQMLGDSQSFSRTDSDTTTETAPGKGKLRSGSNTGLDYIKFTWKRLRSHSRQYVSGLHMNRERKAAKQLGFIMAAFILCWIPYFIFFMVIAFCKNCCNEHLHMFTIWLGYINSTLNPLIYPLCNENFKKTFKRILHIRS
T6 sequence (P50406 whole entry): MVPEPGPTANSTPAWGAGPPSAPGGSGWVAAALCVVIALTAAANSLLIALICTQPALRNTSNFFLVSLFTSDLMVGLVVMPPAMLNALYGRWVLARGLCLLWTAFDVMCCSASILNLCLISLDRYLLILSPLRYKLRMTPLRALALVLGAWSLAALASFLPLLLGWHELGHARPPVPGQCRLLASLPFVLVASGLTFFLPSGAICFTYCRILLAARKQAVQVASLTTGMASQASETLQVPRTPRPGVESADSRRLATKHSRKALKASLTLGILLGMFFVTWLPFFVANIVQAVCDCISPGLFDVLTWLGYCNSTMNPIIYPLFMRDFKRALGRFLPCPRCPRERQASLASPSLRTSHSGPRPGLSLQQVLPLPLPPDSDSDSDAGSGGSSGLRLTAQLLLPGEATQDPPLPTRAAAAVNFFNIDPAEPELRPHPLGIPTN
T4 sequence (P28223 whole entry): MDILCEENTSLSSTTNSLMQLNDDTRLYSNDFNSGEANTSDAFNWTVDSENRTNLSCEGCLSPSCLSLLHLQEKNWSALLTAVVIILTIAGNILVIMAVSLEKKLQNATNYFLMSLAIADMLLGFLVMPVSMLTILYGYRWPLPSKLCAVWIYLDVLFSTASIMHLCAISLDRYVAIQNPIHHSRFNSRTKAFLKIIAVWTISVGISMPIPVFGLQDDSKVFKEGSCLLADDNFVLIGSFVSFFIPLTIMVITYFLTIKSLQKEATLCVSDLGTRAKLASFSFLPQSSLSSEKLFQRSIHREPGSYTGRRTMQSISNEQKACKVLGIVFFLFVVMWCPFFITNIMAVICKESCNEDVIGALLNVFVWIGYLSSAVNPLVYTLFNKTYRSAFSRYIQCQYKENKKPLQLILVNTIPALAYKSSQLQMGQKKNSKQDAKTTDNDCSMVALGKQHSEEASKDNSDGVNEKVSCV
T2 sequence (P25021 whole entry): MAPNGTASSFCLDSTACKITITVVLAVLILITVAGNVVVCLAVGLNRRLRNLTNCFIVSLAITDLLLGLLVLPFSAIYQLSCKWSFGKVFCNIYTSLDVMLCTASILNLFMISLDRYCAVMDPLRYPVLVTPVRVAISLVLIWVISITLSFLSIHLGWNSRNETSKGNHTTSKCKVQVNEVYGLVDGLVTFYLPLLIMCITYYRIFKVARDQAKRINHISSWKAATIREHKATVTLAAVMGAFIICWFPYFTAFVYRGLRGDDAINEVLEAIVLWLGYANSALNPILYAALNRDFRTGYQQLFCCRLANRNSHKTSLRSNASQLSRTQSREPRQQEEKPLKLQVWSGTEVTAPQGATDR

| Compound | inhibition at 1 µM [1] [%] | inhibition at 1 µM [2] [%] | inhibition at 1 µM [3] [%] | inhibition at 1 µM [4] [%] | inhibition at 1 µM [5] [%] | inhibition at 1 µM [6] [%] |
| --- | --- | --- | --- | --- | --- | --- |
| COc1ccc(/C(C)=C/n2c3c(c4cc(Cl)ccc42)CCN(C)CC3)cc1F [Compound No. 157, (E)-9-chloro-6-(2-(3-fluoro-4-methoxyphenyl)prop-1-enyl)-1,2,3,4,5,6-hexahydro-3-methylazepino[4,5-b]indole] | 68 | 93 | 24 | 98 | 101 | 78 |
| C/C(=C/n1c2c(c3cc(Cl)ccc31)CCN(C)CC2)c1cccc(F)c1 [Compound No. 249, (Z)-9-chloro-6-(2-(3-fluorophenyl)prop-1-enyl)-3-methyl-1,2,3,4,5,6-hexahydroazepino[4,5-b]indole] | 98 | 97 | 35 | 100 | 98 | 101 |
| C/C(=C\n1c2c(c3cc(C)ccc31)CCN(C)CC2)c1ccccc1F [Compound No. 241, (E)-6-(2-(2-fluorophenyl)prop-1-enyl)-3,9-dimethyl-1,2,3,4,5,6-hexahydroazepino[4,5-b]indole] | 98 | 93 | 37 | 100 | 97 | 100 |
| C/C(=C\n1c2c(c3cc(C)ccc31)CCN(C)CC2)c1cccc(F)c1 [Compound No. 252, (E)-6-(2-(3-fluorophenyl)prop-1-enyl)-3,9-dimethyl-1,2,3,4,5,6-hexahydroazepino[4,5-b]indole] | 93 | 87 | 19 | 96 | 87 | 98 |
| C/C(=C\n1c2c(c3cc(Cl)ccc31)CCN(C)CC2)c1cccc(F)c1 [Compound No. 250, (E)-9-chloro-6-(2-(3-fluorophenyl)prop-1-enyl)-3-methyl-1,2,3,4,5,6-hexahydroazepino[4,5-b]indole] | 93 | 85 | 15 | 100 | 99 | 99 |
| C/C(=C\n1c2c(c3cc(Cl)ccc31)CCN(C)CC2)c1ccncc1 [Compound No. 248, (E)-9-chloro-3-methyl-6-(2-(pyridin-4-yl)prop-1-enyl)-1,2,3,4,5,6-hexahydroazepino[4,5-b]indole] | 88 | 44 | 81 | 99 | 101 | 103 |
| C/C(=C\n1c2c(c3cc(C)ccc31)CCN(C)CC2)c1ccc(Cl)c(Cl)c1 [Compound No. 176, (E)-6-(2-(3,4-dichlorophenyl)prop-1-enyl)-1,2,3,4,5,6-hexahydro-3,9-dimethylazepino[4,5-b]indole] | 82 | 95 | 23 | 99 | 99 | 74 |
| C/C(=C\n1c2c(c3cc(Cl)ccc31)CCN(C)CC2)c1ccccc1Cl [Compound No. 245, (E)-9-chloro-6-(2-(2-chlorophenyl)prop-1-enyl)-3-methyl-1,2,3,4,5,6-hexahydroazepino[4,5-b]indole] | 96 | 88 | 16 | 99 | 99 | 97 |
| C/C(=C/n1c2c(c3cc(Cl)ccc31)CCN(C)CC2)c1ccccc1Cl [Compound No. 244, (Z)-9-chloro-6-(2-(2-chlorophenyl)prop-1-enyl)-3-methyl-1,2,3,4,5,6-hexahydroazepino[4,5-b]indole] | 102 | 99 | 43 | 100 | 101 | 103 |
| C/C(=C\n1c2c(c3cc(Cl)ccc31)CCN(C)CC2)c1ccc(F)c(F)c1 [Compound No. 155, (E)-9-chloro-6-(2-(3,4-difluorophenyl)prop-1-enyl)-1,2,3,4,5,6-hexahydro-3-methylazepino[4,5-b]indole] | 93 | 92 | 38 | 99 | 98 | 101 |
| COc1ccc(/C(C)=C/n2c3c(c4cc(C)ccc42)CCN(C)CC3)cc1 [Compound No. 182, (E)-1,2,3,4,5,6-hexahydro-6-(2-(4-methoxyphenyl)prop-1-enyl)-3,9-dimethylazepino[4,5-b]indole] | 62 | 92 | 19 | 101 | 102 | 96 |

— patent publication US9481676B2, “Azepino[4,5-B]indoles and methods of use” (Medivation Technologies, Inc., priority 2008, dated 2016)
